The values below come from publication PMC8541633, “A Novel Statin Compound from Monacolin J Produced Using CYP102A1-Catalyzed Regioselective C-Hydroxylation” (Pharmaceuticals, 2021).

One data set addresses T1, HMG-CoA reductase (Homo sapiens, UniProt P04035).
T1 construct: gene HMGCR
T1 sequence (P04035 1-888): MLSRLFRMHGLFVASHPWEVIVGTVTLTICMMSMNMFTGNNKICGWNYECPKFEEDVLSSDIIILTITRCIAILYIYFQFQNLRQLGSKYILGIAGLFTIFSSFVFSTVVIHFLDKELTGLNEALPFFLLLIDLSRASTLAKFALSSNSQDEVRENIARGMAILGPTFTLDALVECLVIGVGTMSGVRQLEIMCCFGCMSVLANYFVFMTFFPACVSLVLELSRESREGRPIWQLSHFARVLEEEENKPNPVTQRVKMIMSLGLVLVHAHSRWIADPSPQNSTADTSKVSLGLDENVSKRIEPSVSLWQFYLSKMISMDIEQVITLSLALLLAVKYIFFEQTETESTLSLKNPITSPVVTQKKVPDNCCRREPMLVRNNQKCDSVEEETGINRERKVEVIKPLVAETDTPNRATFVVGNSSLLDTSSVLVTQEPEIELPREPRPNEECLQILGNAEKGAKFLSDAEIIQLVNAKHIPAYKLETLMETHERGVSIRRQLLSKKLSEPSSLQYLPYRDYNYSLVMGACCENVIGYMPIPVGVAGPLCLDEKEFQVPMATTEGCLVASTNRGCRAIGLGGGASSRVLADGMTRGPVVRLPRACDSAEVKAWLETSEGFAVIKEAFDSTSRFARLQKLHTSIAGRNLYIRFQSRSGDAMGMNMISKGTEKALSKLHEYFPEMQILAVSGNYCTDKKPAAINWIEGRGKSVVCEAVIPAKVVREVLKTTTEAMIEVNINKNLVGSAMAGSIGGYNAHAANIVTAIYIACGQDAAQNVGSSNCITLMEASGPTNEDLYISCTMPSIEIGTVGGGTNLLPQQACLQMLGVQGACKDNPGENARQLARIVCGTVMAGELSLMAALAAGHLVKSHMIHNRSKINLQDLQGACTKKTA
As to the kind of experiment: HMG-CoA reductase assay kit (Sigma-Aldrich), spectrophotometry at […] nm. It counts as biochemical.

A further data set has as its target T2, CYP3A4 (Homo sapiens, UniProt P08684).
T2 construct: recombinant, E. coli membrane fractions; with rat NADPH-P450 reductase (CPR)
The experiment in a line: hydroxylation by recombinant CYP3A4 membranes, HPLC and LC-MS (turnover rate). In kind it is biochemical.

T2 sequence (P08684 2-503): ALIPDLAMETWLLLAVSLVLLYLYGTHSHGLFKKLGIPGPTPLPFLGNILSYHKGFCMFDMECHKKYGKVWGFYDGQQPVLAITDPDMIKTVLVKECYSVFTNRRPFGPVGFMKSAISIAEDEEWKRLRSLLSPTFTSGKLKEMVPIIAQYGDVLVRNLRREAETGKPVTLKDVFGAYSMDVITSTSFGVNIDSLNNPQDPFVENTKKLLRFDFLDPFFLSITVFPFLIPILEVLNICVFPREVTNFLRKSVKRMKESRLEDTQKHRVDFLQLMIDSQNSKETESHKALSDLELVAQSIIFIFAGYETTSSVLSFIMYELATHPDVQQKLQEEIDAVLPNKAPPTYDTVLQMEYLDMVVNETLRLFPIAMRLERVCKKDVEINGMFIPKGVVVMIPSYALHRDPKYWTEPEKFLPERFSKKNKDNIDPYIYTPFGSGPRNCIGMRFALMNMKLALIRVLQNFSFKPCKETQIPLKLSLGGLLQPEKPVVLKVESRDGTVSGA
T2 sequence (P00388 2-678, further chain): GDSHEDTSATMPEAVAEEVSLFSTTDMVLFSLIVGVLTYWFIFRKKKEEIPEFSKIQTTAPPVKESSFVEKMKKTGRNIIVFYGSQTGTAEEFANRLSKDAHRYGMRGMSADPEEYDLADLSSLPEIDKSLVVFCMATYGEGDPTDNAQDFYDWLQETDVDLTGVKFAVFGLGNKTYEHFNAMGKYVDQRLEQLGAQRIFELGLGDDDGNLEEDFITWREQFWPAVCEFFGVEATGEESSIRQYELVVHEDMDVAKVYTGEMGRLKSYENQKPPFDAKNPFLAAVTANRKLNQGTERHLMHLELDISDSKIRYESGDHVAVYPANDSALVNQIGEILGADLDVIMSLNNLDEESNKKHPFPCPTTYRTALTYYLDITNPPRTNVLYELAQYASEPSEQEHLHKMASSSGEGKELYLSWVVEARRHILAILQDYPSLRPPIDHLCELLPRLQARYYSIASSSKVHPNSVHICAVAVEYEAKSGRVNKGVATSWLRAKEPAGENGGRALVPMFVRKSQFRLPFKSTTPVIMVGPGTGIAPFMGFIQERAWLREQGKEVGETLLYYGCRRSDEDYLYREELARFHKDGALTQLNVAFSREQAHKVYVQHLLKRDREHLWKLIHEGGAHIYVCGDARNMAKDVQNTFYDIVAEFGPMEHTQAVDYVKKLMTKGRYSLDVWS

`C[C@H]1C=CC2=C[C@H](CO)C[C@H](O)[C@@H]2[C@H]1CC[C@@H]1C[C@@H](O)CC(=O)O1` [6′a-hydroxymethyl monacolin J]: the IC50 – broadly, the concentration that gives 50% inhibition – against HMG-CoA reductase was found to be 285 µM.

In the case of `C[C@H]1C=C2C=C[C@H](C)[C@H](CC[C@@H]3C[C@@H](O)CC(=O)O3)[C@H]2[C@@H](O)C1` [monacolin J], the “hydroxylation by recombinant CYP3A4 membranes, HPLC and LC-MS (turnover rate)” value on CYP3A4 is on record as 0.040 nmol product min^−1 nmol P450^−1.
